Laboratory results taken from US20150031102A1, “METHODS AND COMPOSITIONS FOR ENHANCED PRODUCTION OF BUTANOL BY CLOSTRIDIA” (Butrolix LLC, priority 2012, published 2015).
“And” between values parts separate entries of the source, which are not always exact repeats. Equal entries are not always repeated.

Test system: C. acetobutylicum ATCC 824
Experiment: Sequential batch cultures of C. acetobutylicum ATCC 824 grown at 30° C. in YEPG (growth OD600, final pH, ceric ion reactive compounds)
Assay type: cell-based, Clostridium acetobutylicum
Details: for Final pH / Optical density at 600 nm / Optical density of ceric ion reactive compounds measured at 500 nm: 96 h culture
Procedure: Clostridium acetobutylicum ATCC 824 and C. beijerinckii NCIMB 8052 are available from several commercial microbial culture collections including the American Type Culture Collection (ATCC), Manassas, Va., USA. The strain grown at 30 C or 37 C in YE broth, which contained, per liter: 5.0 g yeast extract, 2.5 g casamino acids, 1.0 g L-asparagine, 0.5 g cysteine·HCl, 56 mg K2HPO4, 56 mg KH2PO4, 82 mg anhydrous MgSO4, 8 mg FeSO4.H2O, 6 mg MnSO4.H2O and 10 g glucose. Alternatively, strains were grown in YEPG broth, which was identical to YE expect that K2HPO4 and KH2PO4 were increased to 145 mg/L each and glucose was increased to 60 g/L. The pH of the media was adjusted to 7.2 using 45% KOH prior to sterilization by autoclaving. Media were solidified by addition of 1.5% Bacteriological Agar, Acumedia Manufacturers, Inc., Lansing, Mich. All cultures were grown in anaerobic conditions using the AnaeroPack System, Mitsubishi Gas Chemical Co., Inc., Japan, and GasPak EZ Gas Generating Sachets, Becton, Dickinson and Co., Sparks, Md. Spore stocks were kept at room temperature on agar-solidified media and were activated by suspending spores in 0.5 mL to 1.0 mL of medium followed by heating for 10 min at 80 C before inoculation into growth medium.
Growth of bacterial cultures was measured spectrophotometrically using optical density at 600 nm and pH of cell-free culture supernatants was measured using a hand-held Shindengen ISFET pH Meter KS501, Shendengen Electric Manufacturing Co., Ltd., Bannockburn, Ill.
Total alcohols in cell-free culture supernatants were measured using a modification of a colorimetric method based on ceric ammonium nitrate (Reid and Truelove, 1952). The ceric ion reagent was prepared by adding 1.3 mL of concentrated nitric acid to 40 mL of distilled water, then 10.96 g of ceric ammonium nitrate was dissolved in the dilute nitric acid solution and the solution was brought to a final volume of 50 mL. For the assay, […] of butanol standard or culture supernatant was mixed with […] distilled water in a disposable plastic cuvette followed by addition of […] of the ceric ion reagent. The sample was mixed by inverting the cuvette six times then exactly two minutes later the optical density at 500 nm wavelength was measured. The concentration of total alcohols was determined by comparison with a standard curve prepared by using butanol diluted in distilled water.
Spores of C. acetobutylicum ATCC 824 were germinated and grown overnight at 30 C under anaerobic conditions in YEPG medium. After about 24 h of growth, […] of the culture was transferred (transfer 1) to each of four flasks that contained 10 mL of YEPG and either had no treatment or were treated with peptide SEQ ID NO: 143 (see Table 8 and FIG. 1) at 1 nM, 10 nM or 50 nM. Thereafter, […] of each culture was transferred, at the same time, every 24-48 h to 10 mL of fresh YEPG that contained the same peptide treatment or no treatment. Each culture was stopped after 96 hours of incubation and optical density, pH and ceric ion reactive chemicals were measured. Sequential batch culturing was continued through 5 transfers at which point the untreated culture and those treated with 1 nM and 10 nM of peptide SEQ ID NO: 143 had stopped growing (Table 9). […] In addition, treatment with 1 nM of peptide SEQ ID NO: 143 appeared to stop growth at the first transfer, but growth was restored in the second and third transfers.

SYPGWSW [peptide SEQ ID NO: 143]
Extension of growth during sequential batch cultures (1 nM, 30 °C, untreated culture stopped earlier): growth through the third transfer
Final pH (1 nM, transfer 1, 30 °C): 6.0
Optical density at 600 nm (1 nM, transfer 1, 30 °C): 0.005
Optical density of ceric ion reactive compounds measured at 500 nm (1 nM, transfer 1, 30 °C): 0.048
Final pH (1 nM, transfer 2, 30 °C): 4.4
Optical density at 600 nm (1 nM, transfer 2, 30 °C): 2.274
Optical density of ceric ion reactive compounds measured at 500 nm (1 nM, transfer 2, 30 °C): 0.119
Final pH (1 nM, transfer 3, 30 °C): 4.4
Optical density at 600 nm (1 nM, transfer 3, 30 °C): 2.165
Optical density of ceric ion reactive compounds measured at 500 nm (1 nM, transfer 3, 30 °C): 0.167
Final pH (1 nM, transfer 4, 30 °C): 6.0
Optical density at 600 nm (1 nM, transfer 4, 30 °C): 0.044
Optical density of ceric ion reactive compounds measured at 500 nm (1 nM, transfer 4, 30 °C): 0.031
Final pH (1 nM, transfer 5, 30 °C): 6.0
Optical density at 600 nm (1 nM, transfer 5, 30 °C): 0.004
Optical density of ceric ion reactive compounds measured at 500 nm (1 nM, transfer 5, 30 °C): 0.040
Extension of growth during sequential batch cultures (10 nM, 30 °C): growth through the fourth transfer
Final pH (10 nM, transfer 1, 30 °C): 4.4
Optical density at 600 nm (10 nM, transfer 1, 30 °C): 2.001
Optical density of ceric ion reactive compounds measured at 500 nm (10 nM, transfer 1, 30 °C): 0.175
Final pH (10 nM, transfer 2, 30 °C): 4.4
Optical density at 600 nm (10 nM, transfer 2, 30 °C): 2.245
Optical density of ceric ion reactive compounds measured at 500 nm (10 nM, transfer 2, 30 °C): 0.184
Final pH (10 nM, transfer 3, 30 °C): 4.5
Optical density at 600 nm (10 nM, transfer 3, 30 °C): 2.379
Optical density of ceric ion reactive compounds measured at 500 nm (10 nM, transfer 3, 30 °C): 0.187
Final pH (10 nM, transfer 4, 30 °C): 4.5
Optical density at 600 nm (10 nM, transfer 4, 30 °C): 2.266
Optical density of ceric ion reactive compounds measured at 500 nm (10 nM, transfer 4, 30 °C): 0.192
Final pH (10 nM, transfer 5, 30 °C): 5.9 and 6.0
Optical density at 600 nm (10 nM, transfer 5, 30 °C): 0.028
Optical density of ceric ion reactive compounds measured at 500 nm (10 nM, transfer 5, 30 °C): 0.043
Extension of growth during sequential batch cultures (50 nM, 30 °C): growth through the fifth transfer
Final pH (50 nM, transfer 1, 30 °C): 4.4
Optical density at 600 nm (50 nM, transfer 1, 30 °C): 1.879
Optical density of ceric ion reactive compounds measured at 500 nm (50 nM, transfer 1, 30 °C): 0.159
Final pH (50 nM, transfer 2, 30 °C): 4.6
Optical density at 600 nm (50 nM, transfer 2, 30 °C): 2.089
Optical density of ceric ion reactive compounds measured at 500 nm (50 nM, transfer 2, 30 °C): 0.189
Final pH (50 nM, transfer 3, 30 °C): 4.5
Optical density at 600 nm (50 nM, transfer 3, 30 °C): 2.313
Optical density of ceric ion reactive compounds measured at 500 nm (50 nM, transfer 3, 30 °C): 0.183
Final pH (50 nM, transfer 4, 30 °C): 4.4
Optical density at 600 nm (50 nM, transfer 4, 30 °C): 2.187
Optical density of ceric ion reactive compounds measured at 500 nm (50 nM, transfer 4, 30 °C): 0.187
Final pH (50 nM, transfer 5, 30 °C): 4.3
Optical density at 600 nm (50 nM, transfer 5, 30 °C): 2.173
Optical density of ceric ion reactive compounds measured at 500 nm (50 nM, transfer 5, 30 °C): 0.174
Culture degeneration in terms of number of sequential transfers and production of total alcohols (30 °C): prevent culture degeneration
Number of additional sequential transfers versus a culture without added peptide (30 °C): at least four more times
Expected extension of time in continuous culture (extrapolated from sequential batch transfers, dilution rate of 0.05/hour): about five-fold
Expected time in continuous culture (extrapolated from sequential batch transfers, dilution rate of 0.05/hour, from about 140 hours without peptide): about 700 hours
